Assays:
[1] = target: central muscarinic receptors (M1) (Rattus norvegicus, UniProt P08482); experiment: biochemical; assay type: binding
[2] = tested on: acetyl- and butyryl-cholinesterase; experiment: Resistance to cholinesterases; assay type: in vitro ADME
[3] = mouse, icv; cited from earlier work
[4] = oxotremorine 0.5 mg./kg., ip; cited from earlier work
[5] = oxotremorine 0.5 mg./kg., ip; cited from earlier work; remark: listed apart in the source

Sequence of central muscarinic receptors (M1) (P08482 whole entry): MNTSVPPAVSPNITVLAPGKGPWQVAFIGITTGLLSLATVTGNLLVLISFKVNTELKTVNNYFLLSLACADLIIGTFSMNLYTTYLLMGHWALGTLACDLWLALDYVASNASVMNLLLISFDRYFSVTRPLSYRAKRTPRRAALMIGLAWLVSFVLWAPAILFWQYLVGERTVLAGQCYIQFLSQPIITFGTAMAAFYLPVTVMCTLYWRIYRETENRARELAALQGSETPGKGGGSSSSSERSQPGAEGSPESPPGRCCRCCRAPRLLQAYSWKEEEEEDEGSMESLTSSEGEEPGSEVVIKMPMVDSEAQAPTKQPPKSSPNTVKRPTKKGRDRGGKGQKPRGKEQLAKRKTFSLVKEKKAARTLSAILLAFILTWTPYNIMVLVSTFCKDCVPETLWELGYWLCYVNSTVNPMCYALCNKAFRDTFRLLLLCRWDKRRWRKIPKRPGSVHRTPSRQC

## CC1OC2(CS1)CN1CCC2CC1 (centres unmarked) [(Ia), 2-methylspiro(1,3-oxathiolan-5,3')quinuclidine]
[1]
  pharmacological activity (muscarinic): muscarinic agonist with a high specificity for the central nervous system
[2]
  destruction by acetyl- and butyryl-cholinesterase: not destroyed

## CN1CCN(CC(=O)N2c3ccccc3C(=O)Nc3cccnc32)CC1 [PNZ, pirenzepine]
[3]
  minimum effective dose producing impaired passive avoidance learning: 0.1 ug/mouse, icv
[4]
  dose required to reduce the effect of oxotremorine by 50%, antinociception: 4.6 ug/mouse, icv
[5]
  dose required to reduce the effect of oxotremorine by 50%, tremor: 5.8 ug/mouse, icv

Reference: patent US4855290A (priority 1985, dated 1989)
